Laboratory results published in US9382208B1, “Negative allosteric modulators of metabotropic glutamate receptor 2” (Vanderbilt University, priority 2015, dated 2016).
Where two headings read alike, the source gives them in different places.

What was measured:
[1] = test system: group II mGlu receptors (mGlu2 and mGlu3); details: cited from earlier work
C57B16/J mice = details: FST; cited from earlier work
Helpless (H) mice = details: cited from earlier work; for activity in the tail suspension test: Helpless (H) mice
mouse = mouse TST, normal animals; cited from earlier work
[2] = test system: central mGlu2 and mGlu3 receptors; details: in vivo; cited from earlier work
rat = rat FST, normal animals; cited from earlier work
mice = details: cited from earlier work
[3] = test system: Aβ-induced neurodegeneration; details: cited from earlier work
[4] = test system: social isolation-reared mice; details: cited from earlier work
[5] = CFS model; cited from earlier work
[6] = test system: olfactory bulbectomized rats; details: repeated administration for 14 days; cited from earlier work
[7] = treatment for 7 days; cited from earlier work
rat mGlu2 = target: T1, rat mGlu2 (Rattus norvegicus, UniProt P31421); assay: mGlu2 Ca2+ flux assay; type: cell-based; details: for IC50: Gα15 HEK293 cells stably expressing rat mGlu2, glutamate EC80 addition, read-out: rat mGlu2 IC50; for remaining activity at 30 µM: amplitude of response in the presence of 30 μM test compound as percentage of maximal response to glutamate, read-out: rat mGlu2 Glu max (%)
T1 construct: expressed in transfected cells
How it was run: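 Gα15 HEK293 cells stably expressing rat mGlu2, Fluo-4 loaded; compound added, then glutamate at EC20 after 2.3 min and EC80 afterward, calcium flux read as F/F0. Peak amplitude around EC80 addition normalized to glutamate max; IC50 by unconstrained 4-parameter fit, top concentration 30 μM.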

T1 sequence (P31421 19-872): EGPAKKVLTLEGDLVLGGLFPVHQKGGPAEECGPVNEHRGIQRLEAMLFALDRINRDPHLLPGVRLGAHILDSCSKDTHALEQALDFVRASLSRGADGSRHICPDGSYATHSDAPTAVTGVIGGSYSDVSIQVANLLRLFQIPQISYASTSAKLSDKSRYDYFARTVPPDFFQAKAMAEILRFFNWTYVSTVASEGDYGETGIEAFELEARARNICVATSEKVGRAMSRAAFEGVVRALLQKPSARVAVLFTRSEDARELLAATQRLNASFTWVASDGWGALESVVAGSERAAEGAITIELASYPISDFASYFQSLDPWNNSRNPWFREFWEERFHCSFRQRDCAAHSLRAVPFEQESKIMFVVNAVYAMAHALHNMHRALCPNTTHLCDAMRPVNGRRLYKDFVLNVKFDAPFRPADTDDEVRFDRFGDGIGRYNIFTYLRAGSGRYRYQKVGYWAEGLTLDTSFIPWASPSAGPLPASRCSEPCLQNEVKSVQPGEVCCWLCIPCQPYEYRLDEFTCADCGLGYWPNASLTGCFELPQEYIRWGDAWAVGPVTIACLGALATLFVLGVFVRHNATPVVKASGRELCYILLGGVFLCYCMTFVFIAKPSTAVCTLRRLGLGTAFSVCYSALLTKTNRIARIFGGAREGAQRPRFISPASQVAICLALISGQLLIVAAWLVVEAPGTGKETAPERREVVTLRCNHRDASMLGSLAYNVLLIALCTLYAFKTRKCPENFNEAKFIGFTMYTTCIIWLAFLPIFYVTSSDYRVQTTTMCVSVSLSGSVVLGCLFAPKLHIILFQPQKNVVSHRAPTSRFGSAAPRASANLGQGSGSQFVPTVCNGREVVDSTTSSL

## CCCCCCCOC(=O)[C@@]1(F)[C@@H]2C[C@@H](OCc3ccc(Cl)c(Cl)c3)[C@@](N)(C(=O)O)[C@@H]21 [BCI-838]
[1]; three months of treatment, two AD mouse models
  levels of monomeric and oAβ peptides in the hippocampus and cortex: decreased
[1]; three months of treatment
  Dutch APP transgene-associated learning and memory impairment: reversed
  anxiolytic effects: anxiolytic effects
[1]; wild-type and Alzheimer's diseased mice, 3 months
  hippocampal progenitor cell proliferation: stimulated

## N[C@](CC1c2ccccc2Oc2ccccc21)(C(=O)O)[C@H]1C[C@@H]1C(=O)O [LY341495]
C57B16/J mice
  immobility time: dose-dependently reduced
Helpless (H) mice
  activity in the tail suspension test: active
Helpless (H) mice; acute administration
  antidepressant effect in helpless mice: potent antidepressant effect
mouse
  antidepressant-like effects: Antidepressant-like effects
[2]
  hypolocomotor effect of mGlu2/3 agonist (LY379268): achieved the same result
rat
  antidepressant-like effects: Antidepressant-like effects
mice
  marble-burying behavior: significantly reduce marble-burying behavior
[3]
  Aβ-induced neurodegeneration: prevented

## N[C@]1(C(=O)O)[C@H]2[C@@H](C[C@H]1OCc1ccc(Cl)c(Cl)c1)[C@]2(F)C(=O)O [MGS0039]
[4]
  immobility in the FST: reversed the increased immobility
[5]
  freezing behavior: significantly decreased
mouse
  antidepressant-like effects: Antidepressant-like effects
rat
  antidepressant-like effects: Antidepressant-like effects
mice
  marble-burying behavior: reduced marble-burying behavior
  spontaneous locomotor activity: no significant change
[6]
  hyperactivity in the open field test: attenuated the hyperactivity
  learning deficit in the passive avoidance test: attenuated the learning deficit
[7]
  number of escape failures: significantly reduced

## CN1C(=O)CN=C(c2ccccc2)c2cc(Cl)ccc21 [diazepam]
[5]
  freezing behavior: significantly decreased

## CNCCC(Oc1ccc(C(F)(F)F)cc1)c1ccccc1 (stereo not drawn) [fluoxetine]
Helpless (H) mice; chronic (21 days) treatment
  antidepressant effect in helpless mice: full antidepressant effect

## Cc1cc(-c2cccc(C3=Nc4cc(C)c(C(F)(F)F)cc4NC(=O)C3)c2)cc(C)n1 [RO4491533]
C57B16/J mice
  immobility time: dose-dependently reduced
Helpless (H) mice
  activity in the tail suspension test: active
[2]
  hypolocomotor effect of mGlu2/3 agonist (LY379268): reversed the hypolocomotor effect

## NC(=O)c1cn(-c2ccc(F)cc2)c2ccc(CN3CCCCCC3)cc2c1=O [Compound 73, 6-(azepan-1-ylmethyl)-1-(4-fluorophenyl)-4-oxo-1,4-dihydroquinoline-3-carboxamide]
Rat mGlu2
  IC50: 2590 nM
  remaining activity at 30 µM: 0.96%

## NC(=O)c1cn(-c2ccc(F)cc2)c2ccc(CCc3ccc(C(F)(F)F)nc3)cc2c1=O [Compound 47, 1-(4-fluorophenyl)-4-oxo-6-(2-(6-(trifluoromethyl)pyridin-3-yl)ethyl)-1,4-dihydroquinoline-3-carboxamide]
Rat mGlu2
  IC50: 1550 nM
  remaining activity at 30 µM: 1.21%

## CCS(=O)(=O)N(Cc1cccnc1)c1cccc(-c2ccc(C#N)cc2)c1 [LY566332]
[3]
  Aβ-induced neurodegeneration: amplified

## NC(=O)c1cn(-c2ccc(F)cc2)c2c(F)cc(CN3CCC(F)(F)C3)cc2c1=O [Compound 95, 6-((3,3-difluoropyrrolidin-1-yl)methyl)-8-fluoro-1-(4-fluorophenyl)-4-oxo-1,4-dihydroquinoline-3-carboxamide]
Rat mGlu2
  IC50: > 10000 nM
  remaining activity at 30 µM: 31.1%

## NC(=O)c1cn(-c2ccc(F)cc2)c2ccc(-c3ccncc3)cc2c1=O [Compound 63, 1-(4-fluorophenyl)-4-oxo-6-(pyridin-4-yl)-1,4-dihydroquinoline-3-carboxamide]
Rat mGlu2
  IC50: 407 nM
  remaining activity at 30 µM: 0.97%

## CC(Oc1ccc2c(c1)c(=O)c(C(N)=O)cn2-c1ccc(F)cc1)c1cccnc1 (stereo not drawn) [Compound 30, 1-(4-fluorophenyl)-4-oxo-6-(1-(pyridin-3-yl)ethoxy)-1,4-dihydroquinoline-3-carboxamide]
Rat mGlu2
  IC50: 391 ± 44 nM
  remaining activity at 30 µM: 1.31 ± 0.45%

## Cc1ncc(CN(C)c2ccc3c(c2)c(=O)c(C(N)=O)cn3-c2ccc(F)cc2)cn1 [Compound 31, 1-(4-fluorophenyl)-6-(methyl((2-methylpyrimidin-5-yl)methyl)amino)-4-oxo-1,4-dihydroquinoline-3-carboxamide]
Rat mGlu2
  IC50: 153 ± 33 nM
  remaining activity at 30 µM: 1.86 ± 0.26%

## CC1CN(Cc2ccc3c(c2)c(=O)c(C(N)=O)cn3-c2ccc(F)cc2)CCO1 (stereo not drawn) [Compound 79, 1-(4-fluorophenyl)-6-((2-methylmorpholino)methyl)-4-oxo-1,4-dihydroquinoline-3-carboxamide]
Rat mGlu2
  IC50: 328 ± 64 nM
  remaining activity at 30 µM: 1.31 ± 0.04%

## NC(=O)c1cn(-c2ccc(F)cc2)c2ccc(CN3CCC(F)(F)CC3)cc2c1=O [Compound 78, 6-((4,4-difluoropiperidin-1-yl)methyl)-1-(4-fluorophenyl)-4-oxo-1,4-dihydroquinoline-3-carboxamide]
Rat mGlu2
  IC50: 197 ± 91 nM
  remaining activity at 30 µM: 1.59 ± 0.27%

## NC(=O)c1cn(-c2ccc(F)cc2)c2ccc(N3CCCCC3c3cccnc3)cc2c1=O (stereo not drawn) [Compound 38, 1-(4-fluorophenyl)-4-oxo-6-(2-(pyridin-3-yl)piperidin-1-yl)-1,4-dihydroquinoline-3-carboxamide]
Rat mGlu2
  IC50: 900 nM
  remaining activity at 30 µM: 1.68%

## NC(=O)c1cn(-c2ccc(F)cc2)c2ccc(OCc3ccncc3)cc2c1=O [Compound 25, 1-(4-fluorophenyl)-4-oxo-6-(pyridin-4-ylmethoxy)-1,4-dihydroquinoline-3-carboxamide]
Rat mGlu2
  IC50: 1230 nM
  remaining activity at 30 µM: 0.97%

## NC(=O)c1cn(-c2ccc(F)cc2)c2ccc(CN3CCCC4CCCCC43)cc2c1=O (stereo not drawn) [Compound 67, 1-(4-fluorophenyl)-6-((octahydroquinolin-1(2H)-yl)methyl)-4-oxo-1,4-dihydroquinoline-3-carboxamide]
Rat mGlu2
  IC50: 617 nM
  remaining activity at 30 µM: 2.4%

## Cc1ncc(Oc2ccc3c(c2)c(=O)c(C(N)=O)cn3-c2ccc(F)cc2)cn1 [Compound 57, 1-(4-fluorophenyl)-6-((2-methylpyrimidin-5-yl)oxy)-4-oxo-1,4-dihydroquinoline-3-carboxamide]
Rat mGlu2
  IC50: 4480 nM
  remaining activity at 30 µM: 15.7%
